In brackets after ≈: the same amount, converted by molar mass.
How the values were obtained:
[1] = biological target: T1, Adenosine receptor A1 (Rattus norvegicus, UniProt P25099); assay: Displacement of [3H]CCPA from A1 receptor in rat brain cortex membranes by liquid scintillation counting method; type: cell membranes
T1 sequence (P25099 whole entry): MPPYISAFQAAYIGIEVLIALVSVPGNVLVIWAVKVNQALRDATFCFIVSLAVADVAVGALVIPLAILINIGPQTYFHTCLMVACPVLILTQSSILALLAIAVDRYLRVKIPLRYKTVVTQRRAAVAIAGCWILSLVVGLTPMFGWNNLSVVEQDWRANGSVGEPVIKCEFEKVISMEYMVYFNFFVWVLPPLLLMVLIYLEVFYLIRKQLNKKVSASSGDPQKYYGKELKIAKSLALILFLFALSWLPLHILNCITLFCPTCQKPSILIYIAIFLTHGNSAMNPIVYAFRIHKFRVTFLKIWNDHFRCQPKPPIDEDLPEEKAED

[2] = biological target: T2, Adenosine receptor A1 (Rattus norvegicus) (UniProt P25099); assay: Displacement of [3H]CCPA from A1 receptor in rat brain cortex membranes at 1.5 uM by liquid scintillation counting method; type: cell membranes
T2 sequence (whole entry): T1 sequence (P25099 whole entry)

[3] = biological target: Adenosine receptor A2a (Rattus norvegicus, UniProt P30543); assay: Displacement of [3H]MSX from A2A receptor in rat brain striatum membranes measured after 30 mins by liquid scintillation counting method; type: cell membranes
Chain of Adenosine receptor A2a (Rattus norvegicus, UniProt P30543) (P30543 whole entry): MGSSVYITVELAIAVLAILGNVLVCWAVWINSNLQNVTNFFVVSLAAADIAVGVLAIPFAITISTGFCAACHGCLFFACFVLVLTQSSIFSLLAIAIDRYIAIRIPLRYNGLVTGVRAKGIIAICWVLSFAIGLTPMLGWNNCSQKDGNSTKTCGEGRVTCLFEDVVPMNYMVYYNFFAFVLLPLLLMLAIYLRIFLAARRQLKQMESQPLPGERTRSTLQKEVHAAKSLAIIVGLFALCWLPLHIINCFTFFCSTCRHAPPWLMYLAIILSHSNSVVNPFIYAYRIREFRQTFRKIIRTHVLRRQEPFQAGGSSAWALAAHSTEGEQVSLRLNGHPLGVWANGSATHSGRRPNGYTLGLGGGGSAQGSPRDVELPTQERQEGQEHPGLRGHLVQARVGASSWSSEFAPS

[4] = biological target: T3, Amine oxidase [flavin-containing] A (Homo sapiens, UniProt P21397); assay: Inhibition of recombinant human MAO-A expressed in baculovirus infected BTI insect cells preincubated for 30 mins followed by addition of p-tyramine as substrate measured over 45 mins by Amplex Red MAO assay
T3 sequence (P21397 whole entry): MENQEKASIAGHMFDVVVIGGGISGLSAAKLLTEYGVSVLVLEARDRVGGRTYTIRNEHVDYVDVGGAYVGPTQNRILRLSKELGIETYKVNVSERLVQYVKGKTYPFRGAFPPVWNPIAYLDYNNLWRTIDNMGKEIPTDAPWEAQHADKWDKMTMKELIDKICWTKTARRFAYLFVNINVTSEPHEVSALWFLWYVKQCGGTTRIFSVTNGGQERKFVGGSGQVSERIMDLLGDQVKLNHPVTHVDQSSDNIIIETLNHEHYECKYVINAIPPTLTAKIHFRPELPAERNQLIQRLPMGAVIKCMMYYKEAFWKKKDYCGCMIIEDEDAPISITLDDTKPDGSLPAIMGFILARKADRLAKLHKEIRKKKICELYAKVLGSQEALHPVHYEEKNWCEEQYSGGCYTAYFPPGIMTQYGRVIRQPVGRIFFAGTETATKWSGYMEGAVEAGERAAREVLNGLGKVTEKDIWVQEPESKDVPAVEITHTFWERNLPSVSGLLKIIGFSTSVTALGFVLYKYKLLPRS

[5] = biological target: T3, Amine oxidase [flavin-containing] A; assay: Inhibition of recombinant human MAO-A expressed in baculovirus infected BTI insect cells at 10 uM preincubated for 30 mins followed by addition of p-tyramine as substrate measured over 45 mins by Amplex Red MAO assay relative to control; conditions: 0.75 h
[6] = biological target: T4, Amine oxidase [flavin-containing] B (Homo sapiens, UniProt P27338); assay: Inhibition of recombinant human MAO-B expressed in baculovirus infected BTI insect cells preincubated for 30 mins followed by addition of p-tyramine as substrate measured over 45 mins by Amplex Red MAO assay
T4 sequence (P27338 whole entry): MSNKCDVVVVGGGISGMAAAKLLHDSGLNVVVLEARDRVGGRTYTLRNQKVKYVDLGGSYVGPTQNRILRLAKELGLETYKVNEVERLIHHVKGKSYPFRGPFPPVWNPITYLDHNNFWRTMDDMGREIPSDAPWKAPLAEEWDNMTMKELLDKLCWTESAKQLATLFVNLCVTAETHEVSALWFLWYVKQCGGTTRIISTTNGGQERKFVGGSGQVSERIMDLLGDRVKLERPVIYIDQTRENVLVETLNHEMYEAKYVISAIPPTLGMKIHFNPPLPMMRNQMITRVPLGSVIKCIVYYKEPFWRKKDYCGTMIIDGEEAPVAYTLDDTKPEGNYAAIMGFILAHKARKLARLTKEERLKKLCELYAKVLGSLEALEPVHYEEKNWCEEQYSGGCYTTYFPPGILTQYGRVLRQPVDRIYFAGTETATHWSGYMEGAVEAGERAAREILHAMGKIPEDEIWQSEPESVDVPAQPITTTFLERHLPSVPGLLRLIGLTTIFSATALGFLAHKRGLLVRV

[7] = biological target: T4, Amine oxidase [flavin-containing] B; assay: Inhibition of recombinant human MAO-B expressed in baculovirus infected BTI insect cells at 10 uM preincubated for 30 mins followed by addition of p-tyramine as substrate measured over 45 mins by Amplex Red MAO assay relative to control; conditions: 0.75 h
[8] = biological target: T5, Adenosine receptor A2b (Homo sapiens, UniProt P29275); assay: Displacement of [3H]PSB-603 from human A2B receptor expressed in CHO cell membrane; type: cell membranes
T5 sequence (P29275 whole entry): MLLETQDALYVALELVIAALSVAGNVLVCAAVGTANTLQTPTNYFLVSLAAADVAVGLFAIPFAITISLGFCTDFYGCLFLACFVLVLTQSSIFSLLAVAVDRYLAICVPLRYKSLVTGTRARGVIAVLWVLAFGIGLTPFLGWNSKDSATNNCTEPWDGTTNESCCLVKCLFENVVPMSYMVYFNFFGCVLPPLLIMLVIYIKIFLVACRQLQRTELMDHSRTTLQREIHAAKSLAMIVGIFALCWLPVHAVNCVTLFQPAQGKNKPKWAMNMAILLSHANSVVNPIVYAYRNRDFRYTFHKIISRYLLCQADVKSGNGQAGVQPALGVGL

[9] = biological target: T6, Adenosine receptor A3 (Homo sapiens, UniProt P0DMS8); assay: Displacement of [3H]PSB-11 from human A3 receptor expressed in CHO cell membrane by liquid scintillation counting method relative to control; type: cell membranes
T6 sequence (P0DMS8 whole entry): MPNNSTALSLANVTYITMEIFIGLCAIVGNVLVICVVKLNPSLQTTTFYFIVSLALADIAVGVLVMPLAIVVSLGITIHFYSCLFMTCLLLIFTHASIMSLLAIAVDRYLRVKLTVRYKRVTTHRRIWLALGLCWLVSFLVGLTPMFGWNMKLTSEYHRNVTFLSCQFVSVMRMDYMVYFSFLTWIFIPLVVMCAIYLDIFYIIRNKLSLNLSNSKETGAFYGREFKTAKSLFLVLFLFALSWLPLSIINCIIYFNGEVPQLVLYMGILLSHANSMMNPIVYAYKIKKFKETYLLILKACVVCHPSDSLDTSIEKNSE

[10] = biological target: T7, Adenosine receptor A3 (Homo sapiens) (UniProt P0DMS8); assay: Displacement of [3H]PSB-11 from human A3 receptor expressed in CHO cell membrane at 10 uM by liquid scintillation counting method relative to control relative to control; type: cell membranes
T7 sequence (whole entry): T6 sequence (P0DMS8 whole entry)

[11] = Thermodynamic solubility of the compound at pH 7.4; type: physicochemical; conditions: buffer, read-out: Therm_solubility
[12] = biological target: T8, Adenosine receptor A2b (Homo sapiens) (UniProt P29275); assay: Displacement of [3H]PSB-603 from human A2B receptor expressed in CHO cell membrane at 0.3 uM relative to control; type: cell membranes
T8 sequence (whole entry): T5 sequence (P29275 whole entry)

[13] = biological target: Adenosine receptor A2a (Rattus norvegicus) (UniProt P30543); assay: Displacement of [3H]MSX from A2A receptor in rat brain striatum membranes at 1 uM measured after 30 mins by liquid scintillation counting method relative to control; type: cell membranes
Chain of Adenosine receptor A2a (Rattus norvegicus) (P30543 whole entry): as the sequence (P30543 whole entry) above

[14] = Thermodynamic solubility of the compound at pH 1; type: physicochemical; conditions: buffer, read-out: Therm_solubility
[15] = Thermodynamic solubility of the compound at pH 4; type: physicochemical; conditions: buffer, read-out: Therm_solubility
[16] = biological target: T9, Adenosine receptor A1 (Homo sapiens, UniProt P30542); assay: Displacement of [3H]CCPA from human A1 receptor expressed in CHO cell membrane by liquid scintillation counting method; type: cell membranes
T9 sequence (P30542 whole entry): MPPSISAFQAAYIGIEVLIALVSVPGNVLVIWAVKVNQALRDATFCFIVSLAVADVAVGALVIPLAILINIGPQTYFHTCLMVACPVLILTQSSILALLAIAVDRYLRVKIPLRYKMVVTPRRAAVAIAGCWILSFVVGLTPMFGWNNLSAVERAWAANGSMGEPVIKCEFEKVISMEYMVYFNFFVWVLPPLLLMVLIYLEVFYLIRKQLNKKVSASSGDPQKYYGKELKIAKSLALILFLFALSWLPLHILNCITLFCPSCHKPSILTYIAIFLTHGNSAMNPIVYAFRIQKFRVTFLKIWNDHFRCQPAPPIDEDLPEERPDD

[17] = biological target: Adenosine receptor A2a (Homo sapiens, UniProt P29274); assay: Displacement of [3H]MSX from human A2A receptor measured after 30 mins by liquid scintillation counting method
Chain of Adenosine receptor A2a (Homo sapiens, UniProt P29274) (P29274 whole entry): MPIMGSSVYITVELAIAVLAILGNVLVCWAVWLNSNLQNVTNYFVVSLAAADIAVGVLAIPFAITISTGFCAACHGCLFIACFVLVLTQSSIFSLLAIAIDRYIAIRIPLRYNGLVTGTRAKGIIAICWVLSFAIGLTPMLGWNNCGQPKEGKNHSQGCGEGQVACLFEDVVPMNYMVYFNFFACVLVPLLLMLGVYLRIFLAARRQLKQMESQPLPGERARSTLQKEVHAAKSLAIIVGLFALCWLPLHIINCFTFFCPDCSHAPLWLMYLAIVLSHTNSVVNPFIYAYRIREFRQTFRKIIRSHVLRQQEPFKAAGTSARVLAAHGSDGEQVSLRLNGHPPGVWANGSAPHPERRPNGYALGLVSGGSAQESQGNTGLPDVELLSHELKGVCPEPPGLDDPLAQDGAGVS

[18] = biological target: T8, Adenosine receptor A2b (Homo sapiens); assay: Displacement of [3H]PSB-603 from human A2B receptor expressed in CHO cell membrane at 1 uM relative to control; type: cell membranes
[19] = biological target: T7, Adenosine receptor A3 (Homo sapiens); assay: Displacement of [3H]PSB-11 from human A3 receptor expressed in CHO cell membrane at 3 uM by liquid scintillation counting method relative to control relative to control; type: cell membranes

| SMILES | Ki [1] [µM] | Activity [2] [%] | Ki [3] [µM] | IC50 [4] [µM] | inhibition at 10 µM [5] [%] | IC50 [6] [µM] | inhibition at 10 µM [7] [%] | Ki [8] [µM] | Ki [9] [µM] | Activity [10] [%] | solubility thermodynamic [11] [µg/mL] | Activity [12] [%] | Activity [13] [%] | solubility thermodynamic [14] [µg/mL] | solubility thermodynamic [15] [µg/mL] | Ki [16] [µM] | Ki [17] [µM] | Activity [18] [%] | Activity [19] [%] |
| --- | --- | --- | --- | --- | --- | --- | --- | --- | --- | --- | --- | --- | --- | --- | --- | --- | --- | --- | --- |
| Cn1c(=O)c2c(nc3n2CCN(CCc2cc(C(F)(F)F)ccc2F)C3)n(C)c1=O | > 1.5 | 4 | > 1 |  |  |  | 58 | > 0.3 | > 10 | 14 | < 0.5 | 13 | 25 | 400 (≈ 940 µM) | < 0.5 |  |  |  |  |
| Cn1c(=O)c2c(nc3n2CCN(Cc2csc(-c4cccc(Cl)c4)n2)C3)n(C)c1=O | 0.437 |  | 0.16 | > 10 | -13 | > 10 | -2 | > 1 | > 10 | 40 | 2 (≈ 4.52 µM) |  |  |  |  | 0.073 | 0.363 | 6 |  |
| Cn1c(=O)c2c(nc3n2CCN(C2Cc4ccccc4C2)C3)n(C)c1=O | > 1.5 | 12 | > 10 |  |  | 7.59 |  | > 1 | > 3 |  |  |  | 26 |  |  |  |  | 13 | 11 |

More lines, now with the values ahead:

| Ki [1] [µM] | Activity [2] [%] | Ki [3] [µM] | IC50 [4] [µM] | inhibition at 10 µM [5] [%] | IC50 [6] [µM] | inhibition at 10 µM [7] [%] | Ki [8] [µM] | Ki [9] [µM] | Activity [10] [%] | solubility thermodynamic [11] [µg/mL] | Activity [12] [%] | Activity [13] [%] | solubility thermodynamic [14] [µg/mL] | solubility thermodynamic [15] [µg/mL] | Ki [16] [µM] | Ki [17] [µM] | Activity [18] [%] | Activity [19] [%] | SMILES |
| --- | --- | --- | --- | --- | --- | --- | --- | --- | --- | --- | --- | --- | --- | --- | --- | --- | --- | --- | --- |
| > 1.5 | 12 | 1.84 | > 10 | 9 | > 10 | 14 | > 0.3 | > 10 | 20 | 80 (≈ 226 µM) | 5 |  |  |  |  |  |  |  | Cn1c(=O)c2c(nc3n2CCN(CCCc2ccccc2)C3)n(C)c1=O |
| > 1.5 | -4 | > 1 | > 10 | 7 | > 10 | 27 | > 1 | > 3 |  | < 70 |  | 10 | > 1500 | < 200 |  |  | 10 | 3 | Cn1c(=O)c2c(nc3n2CCN(CCCn2cccc2)C3)n(C)c1=O |

— ChEMBL document CHEMBL4428125, “8-Substituted 1,3-dimethyltetrahydropyrazino[2,1-f]purinediones: Water-soluble adenosine receptor antagonists and monoamine oxidase B inhibitors” (Bioorg Med Chem, 2016)
